These results are taken from patent publication US11891387B2, “Monoacylglycerol lipase modulators” (Janssen Pharmaceutica NV, priority 2020, dated 2024).

This assay concerns the target human MGL from HeLa cells (Homo sapiens (Human), UniProt Q99685). Description: MGL in vitro activity assay: cleavage of [glycerol-1,3-3H]-oleyl glycerol, activated carbon filtration. It counts as biochemical. The note with it: 300 nM [Glycerol-1,3-3H]-oleyl glycerol, endogenously expressed MGL from HeLa cells, one hour incubation. An outline of the steps:
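Endogenous human MGL from HeLa cells or homogenates was incubated with compound and 300 nM [glycerol-1,3-3H]-oleyl glycerol for one hour. Released [3H]-glycerol passing an activated carbon filter was counted as the measure of activity. Screening used 10 μM compound, with IC50 top concentration set empirically.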

The term IC50 denotes the concentration needed to halve the response being measured. A high value points to weaker potency.

Chain of human MGL from HeLa cells (Q99685 whole entry): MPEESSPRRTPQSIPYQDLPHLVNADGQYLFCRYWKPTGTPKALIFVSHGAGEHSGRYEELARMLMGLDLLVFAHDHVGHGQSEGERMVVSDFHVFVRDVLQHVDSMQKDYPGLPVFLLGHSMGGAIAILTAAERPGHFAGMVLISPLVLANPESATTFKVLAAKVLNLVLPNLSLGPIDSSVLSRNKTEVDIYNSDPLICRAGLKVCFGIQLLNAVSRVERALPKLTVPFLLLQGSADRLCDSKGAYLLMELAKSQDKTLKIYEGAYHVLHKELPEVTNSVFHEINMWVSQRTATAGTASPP

The compound `C[C@H]1c2nn(C)c(-c3cc(C(F)(F)F)nn3C)c2CCN1C(=O)c1cccc(N2CC3(COC3)C2)c1Cl` [Example 4, (S)-(2-Chloro-3-(2-oxa-6-azaspiro[3.3]heptan-6-yl)phenyl)(2,7-dimethyl-3-(1-methyl-3-(trifluoromethyl)-1H-pyrazol-5-yl)-2,4,5,7-tetrahydro-6H-pyrazolo[3,4-c]pyridin-6-yl)methanone] had an IC50 of 20 nM.
With `Cc1cc(C(=O)N2CCc3c(nn(C)c3-c3cnn(C)c3C(F)(F)F)[C@@H]2C)c2cc(F)ccc2n1` [Example 34, (S)-(2,7-Dimethyl-3-(1-methyl-5-(trifluoromethyl)-1H-pyrazol-4-yl)-2,4,5,7-tetrahydro-6H-pyrazolo[3,4-c]pyridin-6-yl)(6-fluoro-2-methylquinolin-4-yl)methanone] the figure was 2190 nM; with `Cc1c(C(=O)N2CCc3c(nn(C)c3-c3cc(C(F)(F)F)nn3C)[C@@H]2C)ccc2ncsc12` [Example 133, (S)-(2,7-Dimethyl-3-(1-methyl-3-(trifluoromethyl)-1H-pyrazol-5-yl)-2,4,5,7-tetrahydro-6H-pyrazolo[3,4-c]pyridin-6-yl)(7-methylbenzo[d]thiazol-6-yl)methanone], 24 nM; with `C[C@H]1c2nn(C)c(-c3cc(C(F)(F)F)nn3C)c2CCN1C(=O)c1cnc2ncsc2c1` [Example 123, (S)-(2,7-Dimethyl-3-(1-methyl-3-(trifluoromethyl)-1H-pyrazol-5-yl)-2,4,5,7-tetrahydro-6H-pyrazolo[3,4-c]pyridin-6-yl)(thiazolo[4,5-b]pyridin-6-yl)methanone], 950 nM.
With `C[C@H]1c2nn(C)c(-c3cc(C(F)(F)F)nn3C)c2CCN1C(=O)c1cnc2cc(F)cc(F)c2c1` [Example 18, (S)-(5,7-Difluoroquinolin-3-yl)(2,7-dimethyl-3-(1-methyl-3-(trifluoromethyl)-1H-pyrazol-5-yl)-2,4,5,7-tetrahydro-6H-pyrazolo[3,4-c]pyridin-6-yl)methanone] the figure was 360 nM; with `C[C@H]1c2nn(C)c(-c3cc(C(F)(F)F)nn3C)c2CCN1C(=O)c1ccc2ncsc2c1` [Example 56, (S)-Benzo[d]thiazol-6-yl(2,7-dimethyl-3-(1-methyl-3-(trifluoromethyl)-1H-pyrazol-5-yl)-2,4,5,7-tetrahydro-6H-pyrazolo[3,4-c]pyridin-6-yl)methanone], 26 nM.
Next, `C[C@H]1c2nn(C)c(-c3cc(C(F)(F)F)nn3C)c2CCN1C(=O)c1nn(C)c2ccc(F)cc12` [Example 22, (S)-(2,7-Dimethyl-3-(1-methyl-3-(trifluoromethyl)-1H-pyrazol-5-yl)-2,4,5,7-tetrahydro-6H-pyrazolo[3,4-c]pyridin-6-yl)(5-fluoro-1-methyl-1H-indazol-3-yl)methanone]: 30 nM.
As to `C[C@H]1c2nn(C)c(-c3cc(C(F)(F)F)nn3C)c2CCN1C(=O)c1nn(C)c2ccccc12` [Example 6, (S)-(2,7-Dimethyl-3-(1-methyl-3-(trifluoromethyl)-1H-pyrazol-5-yl)-2,4,5,7-tetrahydro-6H-pyrazolo[3,4-c]pyridin-6-yl)(1-methyl-1H-indazol-3-yl)methanone], the IC50 came out at 37 nM. This IC50 and that of the compound before are within 1.5-fold of each other.
Next, `Cn1nc(C(F)(F)F)cc1-c1c2c(nn1C)[C@@H]1CCC[C@H](C2)N1C(=O)c1ccc2ncccc2c1` [Example 80, ((5R,9S)-2-Methyl-3-(1-methyl-3-(trifluoromethyl)-1H-pyrazol-5-yl)-4,5,6,7,8,9-hexahydro-2H-5,9-epiminocycloocta[c]pyrazol-10-yl)(quinolin-6-yl)methanone]: 22 nM.
With `COc1cc(C)cc(C(=O)N2[C@@H]3CCC[C@H]2c2nn(C)c(-c4cc(C(F)(F)F)nn4C)c2C3)c1` (stereo in doubt) [Example 77, (3-Methoxy-5-methylphenyl)((5R,9S)-2-methyl-3-(1-methyl-3-(trifluoromethyl)-1H-pyrazol-5-yl)-4,5,6,7,8,9-hexahydro-2H-5,9-epiminocycloocta[c]pyrazol-10-yl)methanone] the figure was 26 nM; with `Cc1cc(C(=O)N2CCc3c(nn(C)c3-c3cc(C(F)(F)F)n(C)n3)[C@@H]2C)cc(-n2nccn2)c1` [Example 50, (S)-(2,7-Dimethyl-3-(1-methyl-5-(trifluoromethyl)-1H-pyrazol-3-yl)-2,4,5,7-tetrahydro-6H-pyrazolo[3,4-c]pyridin-6-yl)(3-methyl-5-(2H-1,2,3-triazol-2-yl)phenyl)methanone], 23 nM.
With `COc1cc(C(=O)N2CCc3c(nn(C)c3-c3cc(C(F)(F)F)n(C)n3)[C@@H]2C)c2ccccc2n1` [Example 20, (S)-(2,7-Dimethyl-3-(1-methyl-5-(trifluoromethyl)-1H-pyrazol-3-yl)-2,4,5,7-tetrahydro-6H-pyrazolo[3,4-c]pyridin-6-yl)(2-methoxyquinolin-4-yl)methanone] the figure was 8.2 nM.
The compound `COc1ccc(C(=O)N2CCc3c(nn(C)c3-c3cc(C(F)(F)F)nn3C)[C@@H]2C)c2cccnc12` [Example 14, (S)-(2,7-Dimethyl-3-(1-methyl-3-(trifluoromethyl)-1H-pyrazol-5-yl)-2,4,5,7-tetrahydro-6H-pyrazolo[3,4-c]pyridin-6-yl)(8-methoxyquinolin-5-yl)methanone] showed a half-maximal inhibitory concentration (IC50) of 15 nM.
Next, `C[C@H]1c2nn(C)c(-c3cc(C(F)(F)F)nn3C)c2CCN1C(=O)c1cnn2cccc(F)c12` [Example 11, (S)-(2,7-Dimethyl-3-(1-methyl-3-(trifluoromethyl)-1H-pyrazol-5-yl)-2,4,5,7-tetrahydro-6H-pyrazolo[3,4-c]pyridin-6-yl)(4-fluoropyrazolo[1,5-a]pyridin-3-yl)methanone]: 6.2 nM; `C[C@H]1c2nn(C)c(-c3cc(C(F)(F)F)nn3C)c2CCN1C(=O)c1ccc2ncccc2c1` [Example 65, (S)-(2,7-Dimethyl-3-(1-methyl-3-(trifluoromethyl)-1H-pyrazol-5-yl)-2,4,5,7-tetrahydro-6H-pyrazolo[3,4-c]pyridin-6-yl)(quinolin-6-yl)methanone]: 39 nM; `C[C@H]1c2nn(C)c(-c3cnn(C)c3C(F)(F)F)c2CCN1C(=O)c1cccc2cnn(C)c12` [Example 31, (S)-(2,7-Dimethyl-3-(1-methyl-5-(trifluoromethyl)-1H-pyrazol-4-yl)-2,4,5,7-tetrahydro-6H-pyrazolo[3,4-c]pyridin-6-yl)(1-methyl-1H-indazol-7-yl)methanone]: 10000 nM.
Next, `C[C@H]1c2nn(C)c(-c3cc(C(F)(F)F)n(C)n3)c2CCN1C(=O)c1ccnc2c1cnn2C` [Example 118, (S)-(2,7-Dimethyl-3-(1-methyl-5-(trifluoromethyl)-1H-pyrazol-3-yl)-2,4,5,7-tetrahydro-6H-pyrazolo[3,4-c]pyridin-6-yl)(1-methyl-1H-pyrazolo[3,4-b]pyridin-4-yl)methanone]: 47 nM; `Cc1nc2ccccc2cc1C(=O)N1CCc2c(nn(C)c2-c2cc(C(F)(F)F)nn2C)[C@@H]1C` [Example 13, (S)-(2,7-Dimethyl-3-(1-methyl-3-(trifluoromethyl)-1H-pyrazol-5-yl)-2,4,5,7-tetrahydro-6H-pyrazolo[3,4-c]pyridin-6-yl)(2-methylquinolin-3-yl)methanone]: 220 nM; `Cc1ccc2cc(C(=O)N3CCc4c(nn(C)c4-c4cc(C(F)(F)F)nn4C)[C@@H]3C)c(C)cc2n1` [Example 93, (S)-(2,7-Dimethyl-3-(1-methyl-3-(trifluoromethyl)-1H-pyrazol-5-yl)-2,4,5,7-tetrahydro-6H-pyrazolo[3,4-c]pyridin-6-yl)(2,7-dimethylquinolin-6-yl)methanone]: 1210 nM.
Next, `COc1cccc(C(=O)N2CCc3c(nn(C)c3-c3c(C)cnn3C)[C@@H]2C)c1C` [Example 2, (S)-(3-(1,4-Dimethyl-1H-pyrazol-5-yl)-2,7-dimethyl-2,4,5,7-tetrahydro-6H-pyrazolo[3,4-c]pyridin-6-yl)(3-methoxy-2-methylphenyl)methanone]: 10000 nM; `COc1nn(C)cc1-c1c2c(nn1C)[C@H](C)N(C(=O)c1ccc3ncccc3c1)CC2` [Example 16, (S)-(3-(3-Methoxy-1-methyl-1H-pyrazol-4-yl)-2,7-dimethyl-2,4,5,7-tetrahydro-6H-pyrazolo[3,4-c]pyridin-6-yl)(quinolin-6-yl)methanone]: 370 nM.
With `C[C@H]1c2nn(C)c(-c3cc(C(F)(F)F)nn3C)c2CCN1C(=O)c1ccnc2c1ccn2CC(F)(F)F` [Example 12, (S)-(2,7-Dimethyl-3-(1-methyl-3-(trifluoromethyl)-1H-pyrazol-5-yl)-2,4,5,7-tetrahydro-6H-pyrazolo[3,4-c]pyridin-6-yl)(1-(2,2,2-trifluoroethyl)-1H-pyrrolo[2,3-b]pyridin-4-yl)methanone], the IC50 is 100 nM.
As for `COc1cccc(C(=O)N2CCc3c(nn(C)c3-c3cc(C(F)(F)F)n(C)n3)[C@@H]2C)c1Cl` [Example 48, (S)-(2-Chloro-3-methoxyphenyl)(2,7-dimethyl-3-(1-methyl-5-(trifluoromethyl)-1H-pyrazol-3-yl)-2,4,5,7-tetrahydro-6H-pyrazolo[3,4-c]pyridin-6-yl)methanone], it took 19 nM to reach half-maximal inhibition (IC50). This IC50 is about 5.3-fold lower than that of the compound before.
With `Cn1nc(C(F)(F)F)cc1-c1c2c(nn1C)[C@@H]1CCC[C@H](C2)N1C(=O)c1nn(C)c2ccc(F)cc12` [Example 86, (5-Fluoro-1-methyl-1H-indazol-3-yl)((5R,9S)-2-methyl-3-(1-methyl-3-(trifluoromethyl)-1H-pyrazol-5-yl)-4,5,6,7,8,9-hexahydro-2H-5,9-epiminocycloocta[c]pyrazol-10-yl)methanone] the figure was 18 nM; with `C[C@H]1c2nn(C)c(-c3ccnn3CC3CC3)c2CCN1C(=O)c1ccc2ncccc2c1` [Example 71, (S)-(3-(1-(Cyclopropylmethyl)-1H-pyrazol-5-yl)-2,7-dimethyl-2,4,5,7-tetrahydro-6H-pyrazolo[3,4-c]pyridin-6-yl)(quinolin-6-yl)methanone], 7300 nM.
